# Data as given in patent publication US9492471B2, “Methods of treating a disease or disorder associated with Bruton'S Tyrosine Kinase” (Celgene Avilomics Research, Inc., priority 2013, dated 2016).
# Where two headings read alike, the source gives them in different places.
# Columns and labels:
# Experiment in all cases: HotSpot kinase profiling
# Assay type in all cases: biochemical
# [1] = target: T1, LATS2 (Homo sapiens, UniProt Q9NRM7)
# T1 construct: purchased Reaction Biology Corp
# T1 sequence (Q9NRM7 1-1088): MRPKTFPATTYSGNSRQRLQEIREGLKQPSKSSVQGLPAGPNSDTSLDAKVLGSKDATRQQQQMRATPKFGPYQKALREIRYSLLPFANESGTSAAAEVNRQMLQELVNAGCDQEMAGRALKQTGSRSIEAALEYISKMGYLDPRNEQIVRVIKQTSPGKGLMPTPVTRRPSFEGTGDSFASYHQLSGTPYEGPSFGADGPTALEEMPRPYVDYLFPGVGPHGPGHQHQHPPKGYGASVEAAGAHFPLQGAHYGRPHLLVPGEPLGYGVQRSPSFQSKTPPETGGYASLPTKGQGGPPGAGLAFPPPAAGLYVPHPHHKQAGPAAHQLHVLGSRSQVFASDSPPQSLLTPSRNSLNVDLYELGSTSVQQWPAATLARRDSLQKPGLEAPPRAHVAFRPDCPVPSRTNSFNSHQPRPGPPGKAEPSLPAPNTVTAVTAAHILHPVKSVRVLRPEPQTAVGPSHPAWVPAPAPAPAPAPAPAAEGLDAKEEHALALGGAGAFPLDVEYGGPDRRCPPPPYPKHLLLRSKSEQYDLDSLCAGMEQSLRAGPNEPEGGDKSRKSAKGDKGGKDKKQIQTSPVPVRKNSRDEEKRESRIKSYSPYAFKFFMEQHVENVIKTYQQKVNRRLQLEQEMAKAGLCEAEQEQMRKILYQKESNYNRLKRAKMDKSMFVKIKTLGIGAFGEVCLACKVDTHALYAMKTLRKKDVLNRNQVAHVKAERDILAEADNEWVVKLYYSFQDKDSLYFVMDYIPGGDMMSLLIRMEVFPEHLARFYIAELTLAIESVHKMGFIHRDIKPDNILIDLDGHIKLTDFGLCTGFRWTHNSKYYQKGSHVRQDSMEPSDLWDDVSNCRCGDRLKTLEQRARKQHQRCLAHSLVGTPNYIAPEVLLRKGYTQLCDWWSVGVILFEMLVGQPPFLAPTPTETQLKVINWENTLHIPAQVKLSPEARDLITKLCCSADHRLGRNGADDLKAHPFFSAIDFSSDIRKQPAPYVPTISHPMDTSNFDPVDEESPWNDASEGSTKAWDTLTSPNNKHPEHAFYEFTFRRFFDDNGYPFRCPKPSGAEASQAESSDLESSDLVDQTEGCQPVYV
# In short: (§1)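 P81 filtration radiometric readout; 2 h incubation at room temperature; 0.1% phosphoric acid wash; DMSO negative control; % inhibition, mean of replicate runs.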
# [2] = target: T2, RIPK2 (Homo sapiens, UniProt O43353)
# T2 construct: purchased Reaction Biology Corp
# T2 sequence (O43353 whole entry): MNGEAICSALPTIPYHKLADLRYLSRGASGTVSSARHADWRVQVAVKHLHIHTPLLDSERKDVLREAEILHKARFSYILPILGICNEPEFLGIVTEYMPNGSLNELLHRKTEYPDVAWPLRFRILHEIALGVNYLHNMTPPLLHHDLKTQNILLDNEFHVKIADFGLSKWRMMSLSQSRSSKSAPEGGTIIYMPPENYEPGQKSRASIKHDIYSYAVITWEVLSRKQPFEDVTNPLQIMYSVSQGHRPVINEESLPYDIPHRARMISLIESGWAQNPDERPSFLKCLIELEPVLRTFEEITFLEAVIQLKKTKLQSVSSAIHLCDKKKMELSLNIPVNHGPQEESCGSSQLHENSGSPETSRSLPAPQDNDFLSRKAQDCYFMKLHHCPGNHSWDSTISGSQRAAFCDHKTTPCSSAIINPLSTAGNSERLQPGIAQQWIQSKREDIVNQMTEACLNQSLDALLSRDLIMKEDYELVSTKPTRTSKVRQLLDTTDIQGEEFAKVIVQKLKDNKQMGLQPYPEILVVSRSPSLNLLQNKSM
# In short: as §1
# [3] = target: T3, CLK3 (Homo sapiens, UniProt P49761)
# T3 construct: purchased Reaction Biology Corp
# T3 sequence (P49761 whole entry): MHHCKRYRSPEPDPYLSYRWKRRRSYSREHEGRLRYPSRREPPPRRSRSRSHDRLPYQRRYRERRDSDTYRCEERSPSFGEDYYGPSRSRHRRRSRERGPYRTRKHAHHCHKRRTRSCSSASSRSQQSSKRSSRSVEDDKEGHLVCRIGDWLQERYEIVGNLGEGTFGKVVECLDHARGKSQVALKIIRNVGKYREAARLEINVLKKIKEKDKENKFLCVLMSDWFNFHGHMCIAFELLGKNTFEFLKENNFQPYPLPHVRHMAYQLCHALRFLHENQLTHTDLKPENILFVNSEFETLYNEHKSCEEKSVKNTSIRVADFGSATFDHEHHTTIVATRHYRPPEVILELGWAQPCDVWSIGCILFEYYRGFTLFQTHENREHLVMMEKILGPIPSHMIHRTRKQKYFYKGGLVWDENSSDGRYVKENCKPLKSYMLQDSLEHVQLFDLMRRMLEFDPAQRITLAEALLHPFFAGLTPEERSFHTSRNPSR
# In short: as §1
# [4] = target: T4, MEK3 (Homo sapiens, UniProt P46734)
# T4 construct: purchased Reaction Biology Corp
# T4 sequence (P46734 1-347): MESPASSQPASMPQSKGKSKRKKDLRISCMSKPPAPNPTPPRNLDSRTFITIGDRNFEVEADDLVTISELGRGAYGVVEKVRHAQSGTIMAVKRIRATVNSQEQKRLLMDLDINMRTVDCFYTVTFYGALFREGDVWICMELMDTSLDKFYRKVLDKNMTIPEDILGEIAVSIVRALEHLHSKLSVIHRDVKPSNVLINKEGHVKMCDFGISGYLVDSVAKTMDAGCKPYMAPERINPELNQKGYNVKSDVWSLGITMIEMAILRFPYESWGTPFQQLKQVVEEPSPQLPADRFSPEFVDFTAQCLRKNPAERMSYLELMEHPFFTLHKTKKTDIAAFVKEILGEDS
# In short: as §1
# [5] = target: T5, MAPKAPK5/PRAK (Homo sapiens, UniProt Q8IW41)
# T5 construct: purchased Reaction Biology Corp
# T5 sequence (Q8IW41 1-473): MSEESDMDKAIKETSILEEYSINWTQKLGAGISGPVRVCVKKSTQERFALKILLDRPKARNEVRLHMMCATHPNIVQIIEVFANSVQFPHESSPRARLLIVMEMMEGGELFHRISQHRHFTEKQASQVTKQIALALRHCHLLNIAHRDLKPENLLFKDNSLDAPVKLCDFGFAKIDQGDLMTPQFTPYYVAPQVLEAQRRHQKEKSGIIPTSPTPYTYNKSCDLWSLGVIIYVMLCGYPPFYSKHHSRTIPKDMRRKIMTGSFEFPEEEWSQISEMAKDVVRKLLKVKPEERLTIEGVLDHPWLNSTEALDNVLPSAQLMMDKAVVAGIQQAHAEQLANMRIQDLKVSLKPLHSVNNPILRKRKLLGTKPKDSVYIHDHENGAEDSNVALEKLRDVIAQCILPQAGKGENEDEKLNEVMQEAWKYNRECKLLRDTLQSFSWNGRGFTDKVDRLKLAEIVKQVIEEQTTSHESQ
# In short: as §1
# [6] = read-out: % Enzyme Activity (relative to DMSO controls) Run 1
# [7] = read-out: % Enzyme Activity (relative to DMSO controls) Run 2
smiles,measurement,setting,value
C=CC(=O)Nc1cccc(Nc2nc(Nc3ccc(OCCOC)c(F)c3)ncc2F)c1 [Compound 2],inhibition at 3 µM,[1],10.2%
same,remaining activity at 3 µM,[1]; [6],88.4%
same,remaining activity at 3 µM,[1]; [7],91.2%
same,inhibition at 3 µM,[2],23.7%
same,remaining activity at 3 µM,[2]; [6],77.6%
same,remaining activity at 3 µM,[2]; [7],75%
same,inhibition at 3 µM,[3],6.9%
same,remaining activity at 3 µM,[3]; [6],90.4%
same,remaining activity at 3 µM,[3]; [7],95.8%
same,inhibition at 3 µM,[4],-15.3%
same,remaining activity at 3 µM,[4]; [6],117%
same,remaining activity at 3 µM,[4]; [7],113%
same,inhibition at 3 µM,[5],-11.6%
same,remaining activity at 3 µM,[5]; [6],110%
same,remaining activity at 3 µM,[5]; [7],113%
